In PubChem BioAssay (NCI):
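Each compound was tested at five concentrations against cells in 96-well plates for 48 hours. Abbreviation: GI50, concentration required for 50% inhibition of growth. TGI: total growth inhibition.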

Legend:
Test in all cases: inhibition of tumour cell growth, NCI panel, 48 h
A498 renal = tested on: A498 renal
A549 NSCLC = tested on: A549 NSCLC
EKVX NSCLC = tested on: EKVX NSCLC
OVCAR-8 ovarian = tested on: OVCAR-8 ovarian
RPMI-8226 leukemia = tested on: RPMI-8226 leukemia
RXF 393 renal = tested on: RXF 393 renal
SNB-75 CNS = tested on: SNB-75 CNS
T-47D breast = tested on: T-47D breast
UACC-62 melanoma = tested on: UACC-62 melanoma
UO-31 renal = tested on: UO-31 renal

Structure (SMILES) | GI50 (A498 renal) | TGI (A498 renal) | GI50 (A549 NSCLC) | TGI (A549 NSCLC) | GI50 (EKVX NSCLC) | TGI (EKVX NSCLC) | GI50 (OVCAR-8 ovarian) | TGI (OVCAR-8 ovarian) | GI50 (RPMI-8226 leukemia) | TGI (RPMI-8226 leukemia) | GI50 (RXF 393 renal) | TGI (RXF 393 renal) | GI50 (SNB-75 CNS) | TGI (SNB-75 CNS) | GI50 (T-47D breast) | TGI (T-47D breast) | GI50 (UACC-62 melanoma) | TGI (UACC-62 melanoma) | GI50 (UO-31 renal) | TGI (UO-31 renal)
C=C1C(=O)O[C@H]2[C@H]1CC/C(COC(=O)N[C@H]1C[C@H](O[C@H]3C[C@](O)(C(=O)CO)Cc4c(O)c5c(c(O)c43)C(=O)c3c(OC)cccc3C5=O)O[C@@H](C)[C@H]1O)=C\CC[C@@]1(C)O[C@@H]21 | 6.85 µM | 29.4 µM | > 50 µM | > 50 µM | 23.3 µM | > 50 µM | 6.99 µM | 18 µM | 1.33 µM | 3.97 µM | 1.22 µM | 3.85 µM | 6.97 µM | 24.1 µM | 2.27 µM | 10.4 µM | 1.69 µM | 7.02 µM | > 50 µM | > 50 µM
CC(NC(=O)Cc1ccc(C(F)(F)P(=O)(OCc2ccc([N+](=O)[O-])o2)N(C)CCCCCl)cc1)c1ccc(OCC2CCCCC2)c(C(N)=O)c1 (centres undefined) | 1.17 µM | 24 µM | 14.5 µM | 58.7 µM | 4.92 µM | 16.7 µM | 12.1 µM | 41.9 µM | 1.14 µM | 3.86 µM | 4.36 µM | 9.97 µM | 4.7 µM | 9.97 µM | 4.33 µM | 15 µM | 4.97 µM | 10.2 µM | 7.74 µM | 21.9 µM
O=C(c1ccc2ccccc2c1)c1nc2cc(F)ccc2[n+]([O-])c1C(F)(F)F | 43.7 µM | > 100 µM | 20.6 µM | 53.7 µM | 18.2 µM | 38 µM | 16.7 µM | 32.4 µM | 20.1 µM | 53.7 µM | 14.6 µM | 30.8 µM | 17 µM | 35.9 µM | 27.6 µM | > 100 µM | 17 µM | 32.6 µM | 9.42 µM | 48.8 µM
COc1cc(F)ccc1-c1cc(Nc2cc(CS(C)(=N)=O)ccn2)ncc1F (centres undefined) | 0.0713 µM | 0.392 µM | 0.105 µM | > 100 µM | 0.153 µM | 8.63 µM | 0.0914 µM | > 100 µM | 0.11 µM | 0.662 µM | 0.0221 µM | 0.0536 µM | 0.0663 µM | 0.433 µM | 0.121 µM |  | 0.0555 µM | 0.342 µM | 0.0337 µM | > 100 µM
CN(Cc1ccc(F)cc1)c1ccc(CO)c(Cl)c1 | 0.0507 µM | 0.174 µM | 5.54 µM | > 60.1 µM | 26.9 µM | > 100 µM | 20.7 µM | > 100 µM | 12.4 µM | 60.6 µM | 9.12 µM | > 59 µM | 18.4 µM | 89.5 µM | 0.667 µM | 4.16 µM | 0.323 µM | 3.32 µM | 7.53 µM | > 65.1 µM
CC(=O)c1cccc(NC(=O)C(=O)c2c(O)c3ccccc3oc2=O)c1 |  | > 100 µM |  | > 100 µM |  | > 100 µM |  | > 100 µM |  | > 100 µM |  | > 100 µM |  | > 100 µM |  | > 100 µM |  | > 100 µM |  | > 100 µM
ClCc1cccc(Cn2cnc3c(Cl)nc(Cl)nc32)c1 | 2.42 µM | 6.53 µM | 3.08 µM | 9.89 µM | 1.74 µM | 3.35 µM | 1.81 µM | 3.51 µM | 3.29 µM | > 100 µM | 0.76 µM | 2.1 µM | 2.04 µM | 3.89 µM | 1.97 µM | 4.5 µM | 1.84 µM | 3.44 µM | 1.58 µM | 3.06 µM
CCN1[C@@H](C(=O)NC23CCC(C(=O)O)(CC2)CC3)[C@H](c2cccc(Cl)c2F)[C@]2(C(=O)Nc3cc(Cl)ccc32)C12CCCCC2 | 0.281 µM | 3.37 µM | 0.177 µM | 7.03 µM | 2.53 µM | 13.7 µM | 3.84 µM | 18.7 µM | 2.33 µM | 6.61 µM | 1.99 µM | 5.69 µM | 1.91 µM | 14.8 µM | 3.13 µM | 19.4 µM | 0.0372 µM | 2.24 µM | 0.0779 µM | 3.6 µM
CCCC1(CN2c3ccccc3Sc3ccc(Cl)cc32)CCN(CC)C1 (centres undefined) | 1.6 µM | 3.12 µM | 1.78 µM | 3.38 µM | 1.77 µM | 3.55 µM | 1.78 µM | 3.35 µM | 2.59 µM | 5.73 µM | 1.54 µM | 2.94 µM | 1.77 µM | 3.74 µM | 2.21 µM | 5.03 µM | 1.92 µM | 3.6 µM | 1.51 µM | 2.97 µM
CSc1ncnc2c1ncn2CC(=O)C1CCC2C3CCC4=CC(=O)CCC4(C)C3CCC12C (centres undefined) |  | 38.4 µM |  | > 64.7 µM |  | 68.3 µM |  | > 40.7 µM |  | 5.21 µM |  | > 100 µM |  | 27.9 µM |  | 5.63 µM |  | 14 µM |  | 2.52 µM
